The values that follow come from PMC9062151, “GVS-12 attenuates non-alcoholic steatohepatitis by suppressing inflammatory responses via PPARγ/STAT3 signaling pathways” (RSC Advances, 2019).

The target of the assay is T1, PPARγ (peroxisome proliferator-activated receptor γ) (Homo sapiens, UniProt P37231).
T1 construct: gene PPARG; PPARγ-LBD
T1 sequence (P37231 235-505 limits assumed): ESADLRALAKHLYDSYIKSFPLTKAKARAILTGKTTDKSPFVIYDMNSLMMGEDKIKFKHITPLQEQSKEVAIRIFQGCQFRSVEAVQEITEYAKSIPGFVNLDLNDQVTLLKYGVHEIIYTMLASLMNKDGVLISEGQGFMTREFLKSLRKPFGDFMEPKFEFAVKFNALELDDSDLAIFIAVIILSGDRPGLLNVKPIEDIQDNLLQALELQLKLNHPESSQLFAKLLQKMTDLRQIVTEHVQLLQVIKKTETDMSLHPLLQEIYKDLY
Nature of the assay: LanthaScreen TR-FRET PPARγ competitive binding assay; supported by PPARγ reporter gene activation in HepG2 cells. On the technique in general: Time-resolved FRET reads energy transfer from a long-lived donor to a nearby acceptor.

Structures are written as SMILES.

`O=C(NCc1ccco1)c1ccc(OCc2ccc(C(F)(F)F)cc2)cc1` [GVS-12]: the Ki – broadly, a measure of affinity in units of concentration, obtained from inhibition or displacement – is 320 nM.
